Experimental data reported in ChEMBL document CHEMBL2021857, “Synthesis, biological activity and docking study of imidazol-5-one as novel non-nucleoside HIV-1 reverse transcriptase inhibitors” (Bioorg Med Chem, 2012).

Key:
[1] = molecular target: Human immunodeficiency virus type 1 reverse transcriptase (Human immunodeficiency virus 1) (UniProt Q72547); test: Inhibition of HIV-1 reverse transcriptase at 20 ug after 1 hr by colorimetry
[2] = molecular target: Human immunodeficiency virus type 1 reverse transcriptase (Human immunodeficiency virus 1, UniProt Q72547); test: Inhibition of HIV-1 reverse transcriptase after 1 hr by colorimetry

inhibition [1] | IC50 [2] | SMILES
69.8% | 3.9 µM | CC1=N/C(=C/c2ccc(Cl)cc2)C(=O)N1Cc1ccncc1
64.3% | – | C/C=C1/N=C(C)N(Cc2ccncc2)C1=O
62.5% | – | O=C1/C(=C\c2ccco2)N=C(c2ccccc2)N1Cc1ccncc1
47% | – | O=C1/C(=C\c2ccc(Cl)cc2)N=C(c2ccccc2)N1Cc1ccncc1
58.7% | – | CC1=N/C(=C/c2c[nH]c3ccccc23)C(=O)N1Cc1ccncc1
70% | 3.8 µM | O=C1/C(=C\c2ccc(Cl)cc2Cl)N=C(c2ccccc2)N1Cc1ccncc1
54.4% | – | O=C1/C(=C\c2ccccc2)N=C(c2ccccc2)N1Cc1ccncc1
57.8% | – | COc1cc(/C=C2/N=C(c3ccccc3)N(Cc3ccncc3)C2=O)cc(OC)c1OC
67% | – | COc1cc(/C=C2/N=C(C)N(Cc3ccncc3)C2=O)cc(OC)c1OC
61.5% | – | C/C=C1/N=C(c2ccccc2)N(Cc2ccncc2)C1=O
60.7% | – | CC1=N/C(=C/c2ccccc2)C(=O)N1Cc1ccncc1
50.2% | – | COc1cc(/C=C2/N=C(c3ccccc3)N(Cc3ccncc3)C2=O)ccc1O
58.1% | – | CC1=N/C(=C/c2ccc(N(C)C)cc2)C(=O)N1Cc1ccncc1
36.8% | – | CN(C)c1ccc(/C=C2/N=C(c3ccccc3)N(Cc3ccncc3)C2=O)cc1
74.2% | 3.5 µM | CC1=N/C(=C/c2ccccc2O)C(=O)N1Cc1ccncc1
50% | – | COc1ccc(/C=C2/N=C(c3ccccc3)N(Cc3ccncc3)C2=O)cc1
62.8% | – | CC1=N/C(=C/c2ccc(Cl)cc2Cl)C(=O)N1Cc1ccncc1
59.2% | – | COc1ccc(/C=C2/N=C(C)N(Cc3ccncc3)C2=O)cc1
43.2% | – | O=C1/C(=C\c2ccccc2O)N=C(c2ccccc2)N1Cc1ccncc1
92.7% | 2.5 µM | CC1=N/C(=C/c2ccco2)C(=O)N1Cc1ccncc1
